Results reported in ChEMBL document CHEMBL1275492, “In vitro activity of ceftobiprole against pathogens from two phase 3 clinical trials of complicated skin and skin structure infections” (2008).
In brackets after ≈: the same amount, converted by molar mass.

Columns and labels:
Type in all cases: functional
Citrobacter braakii = assay: Antibacterial activity against Citrobacter braakii obtained from complicated skin and skin structure infections by agar dilution method
Citrobacter freundii = assay: Antibacterial activity against Citrobacter freundii obtained from complicated skin and skin structure infections by agar dilution method
Proteus penneri = assay: Antibacterial activity against Proteus penneri obtained from complicated skin and skin structure infections by agar dilution method
Providencia stuartii = assay: Antibacterial activity against Providencia stuartii obtained from complicated skin and skin structure infections by agar dilution method
[1] = tested on: Stenotrophomonas maltophilia; assay: Antibacterial activity against Stenotrophomonas maltophilia obtained from complicated skin and skin structure infections by agar dilution method
Proteus mirabilis = assay: Antibacterial activity against Proteus mirabilis obtained from complicated skin and skin structure infections by agar dilution method
Pseudomonas aeruginosa = assay: Antibacterial activity against Pseudomonas aeruginosa obtained from complicated skin and skin structure infections by agar dilution method
Escherichia coli = assay: Antibacterial activity against Escherichia coli obtained from complicated skin and skin structure infections by agar dilution method
Klebsiella pneumoniae = assay: Antibacterial activity against Klebsiella pneumoniae obtained from complicated skin and skin structure infections by agar dilution method
Proteus vulgaris = assay: Antibacterial activity against Proteus vulgaris obtained from complicated skin and skin structure infections by agar dilution method
Acinetobacter baumannii = assay: Antibacterial activity against Acinetobacter baumannii obtained from complicated skin and skin structure infections by agar dilution method
Morganella morganii = assay: Antibacterial activity against Morganella morganii obtained from complicated skin and skin structure infections by agar dilution method
Enterobacter amnigenus = assay: Antibacterial activity against Enterobacter amnigenus obtained from complicated skin and skin structure infections by agar dilution method; conditions: Lelliottia amnigena
Serratia marcescens = assay: Antibacterial activity against Serratia marcescens obtained from complicated skin and skin structure infections by agar dilution method
Pseudomonas fluorescens = assay: Antibacterial activity against Pseudomonas fluorescens obtained from complicated skin and skin structure infections by agar dilution method
Salmonella = assay: Antibacterial activity against Salmonella spp. obtained from complicated skin and skin structure infections by agar dilution method
Klebsiella aerogenes = assay: Antibacterial activity against Enterobacter aerogenes obtained from complicated skin and skin structure infections by agar dilution method
Klebsiella oxytoca = assay: Antibacterial activity against Klebsiella oxytoca obtained from complicated skin and skin structure infections by agar dilution method
Enterobacter cloacae = assay: Antibacterial activity against Enterobacter cloacae obtained from complicated skin and skin structure infections by agar dilution method

SMILES	MIC50 (Citrobacter braakii)	MIC90 (Citrobacter braakii)	MIC50 (Citrobacter freundii)	MIC90 (Citrobacter freundii)	MIC50 (Proteus penneri)	MIC90 (Proteus penneri)	MIC50 (Providencia stuartii)	MIC90 (Providencia stuartii)	MIC50 [1]	MIC90 [1]	MIC50 (Proteus mirabilis)	MIC90 (Proteus mirabilis)	MIC50 (Pseudomonas aeruginosa)	MIC90 (Pseudomonas aeruginosa)	MIC50 (Escherichia coli)	MIC90 (Escherichia coli)	MIC50 (Klebsiella pneumoniae)	MIC90 (Klebsiella pneumoniae)	MIC50 (Proteus vulgaris)	MIC90 (Proteus vulgaris)	also measured
CO/N=C(\C(=O)N[C@@H]1C(=O)N2C(C(=O)[O-])=C(C[N+]3(C)CCCC3)CS[C@H]12)c1csc(N)n1	0.06 µg/mL (≈ 0.125 µM)	4 µg/mL (≈ 8.32 µM)	0.06 µg/mL (≈ 0.125 µM)	4 µg/mL (≈ 8.32 µM)	0.06 µg/mL (≈ 0.125 µM)	4 µg/mL (≈ 8.32 µM)	0.06 µg/mL (≈ 0.125 µM)	4 µg/mL (≈ 8.32 µM)	> 16 µg/mL	32 µg/mL (≈ 66.6 µM)	0.06 µg/mL (≈ 0.125 µM)	1 µg/mL (≈ 2.08 µM)	4 µg/mL (≈ 8.32 µM)	64 µg/mL (≈ 133 µM)	0.03 µg/mL (≈ 0.0624 µM)	0.12 µg/mL (≈ 0.25 µM)	≤ 0.12 µg/mL	1 µg/mL (≈ 2.08 µM)	0.06 µg/mL (≈ 0.125 µM)	4 µg/mL (≈ 8.32 µM)	MIC50 (Acinetobacter baumannii): > 16 µg/mL; MIC90 (Acinetobacter baumannii): 32 µg/mL (≈ 66.6 µM); MIC50 (Morganella morganii): 0.03 µg/mL (≈ 0.0624 µM); MIC90 (Morganella morganii): > 64 µg/mL; MIC50 (Enterobacter amnigenus): 0.06 µg/mL (≈ 0.125 µM); MIC90 (Enterobacter amnigenus): 4 µg/mL (≈ 8.32 µM); MIC50 (Serratia marcescens): 0.06 µg/mL (≈ 0.125 µM); MIC90 (Serratia marcescens): 4 µg/mL (≈ 8.32 µM); MIC50 (Pseudomonas fluorescens): > 16 µg/mL; MIC90 (Pseudomonas fluorescens): 32 µg/mL (≈ 66.6 µM); MIC50 (Salmonella): 0.06 µg/mL (≈ 0.125 µM); MIC90 (Salmonella): 4 µg/mL (≈ 8.32 µM); MIC50 (Klebsiella aerogenes): 0.06 µg/mL (≈ 0.125 µM); MIC90 (Klebsiella aerogenes): 4 µg/mL (≈ 8.32 µM); MIC50 (Klebsiella oxytoca): 0.06 µg/mL (≈ 0.125 µM); MIC90 (Klebsiella oxytoca): 4 µg/mL (≈ 8.32 µM)
NCC[C@H](O)C(=O)N[C@@H]1C[C@H](N)[C@@H](O[C@H]2O[C@H](CN)[C@@H](O)[C@H](O)[C@H]2O)[C@H](O)[C@H]1O[C@H]1O[C@H](CO)[C@@H](O)[C@H](N)[C@H]1O [AMIKACIN]	2 µg/mL (≈ 3.42 µM)	8 µg/mL (≈ 13.7 µM)	2 µg/mL (≈ 3.42 µM)	8 µg/mL (≈ 13.7 µM)	2 µg/mL (≈ 3.42 µM)	8 µg/mL (≈ 13.7 µM)	2 µg/mL (≈ 3.42 µM)	8 µg/mL (≈ 13.7 µM)	16 µg/mL (≈ 27.3 µM)	> 128 µg/mL	4 µg/mL (≈ 6.83 µM)	16 µg/mL (≈ 27.3 µM)	8 µg/mL (≈ 13.7 µM)	64 µg/mL (≈ 109 µM)	2 µg/mL (≈ 3.42 µM)	4 µg/mL (≈ 6.83 µM)	1 µg/mL (≈ 1.71 µM)	64 µg/mL (≈ 109 µM)	2 µg/mL (≈ 3.42 µM)	8 µg/mL (≈ 13.7 µM)	MIC50 (Enterobacter cloacae): 2 µg/mL (≈ 3.42 µM); MIC90 (Enterobacter cloacae): 8 µg/mL (≈ 13.7 µM); MIC (Klebsiella pneumoniae): 1 µg/mL (≈ 1.71 µM); MIC50 (Acinetobacter baumannii): 16 µg/mL (≈ 27.3 µM); MIC90 (Acinetobacter baumannii): > 128 µg/mL; MIC50 (Morganella morganii): 2 µg/mL (≈ 3.42 µM); MIC90 (Morganella morganii): 4 µg/mL (≈ 6.83 µM); MIC50 (Enterobacter amnigenus): 2 µg/mL (≈ 3.42 µM); MIC90 (Enterobacter amnigenus): 8 µg/mL (≈ 13.7 µM); MIC50 (Serratia marcescens): 2 µg/mL (≈ 3.42 µM); MIC90 (Serratia marcescens): 8 µg/mL (≈ 13.7 µM); MIC50 (Pseudomonas fluorescens): 16 µg/mL (≈ 27.3 µM); MIC90 (Pseudomonas fluorescens): > 128 µg/mL; MIC50 (Salmonella): 2 µg/mL (≈ 3.42 µM); MIC90 (Salmonella): 8 µg/mL (≈ 13.7 µM); MIC50 (Klebsiella aerogenes): 2 µg/mL (≈ 3.42 µM); MIC90 (Klebsiella aerogenes): 8 µg/mL (≈ 13.7 µM); MIC50 (Klebsiella oxytoca): 2 µg/mL (≈ 3.42 µM); MIC90 (Klebsiella oxytoca): 8 µg/mL (≈ 13.7 µM)
CO/N=C(\C(=O)N[C@@H]1C(=O)N2C(C(=O)O)=C(CSc3nc(=O)c(O)nn3C)CS[C@H]12)c1csc(N)n1 [CEFTRIAXONE]	0.06 µg/mL (≈ 0.108 µM)	64 µg/mL (≈ 115 µM)	0.06 µg/mL (≈ 0.108 µM)	64 µg/mL (≈ 115 µM)	0.06 µg/mL (≈ 0.108 µM)	64 µg/mL (≈ 115 µM)	0.06 µg/mL (≈ 0.108 µM)	64 µg/mL (≈ 115 µM)	> 32 µg/mL	> 128 µg/mL	≤ 0.015 µg/mL	4 µg/mL (≈ 7.21 µM)	64 µg/mL (≈ 115 µM)	> 128 µg/mL	0.06 µg/mL (≈ 0.108 µM)	0.25 µg/mL (≈ 0.451 µM)	0.12 µg/mL (≈ 0.216 µM)	64 µg/mL (≈ 115 µM)	0.06 µg/mL (≈ 0.108 µM)	64 µg/mL (≈ 115 µM)	MIC50 (Enterobacter cloacae): ≤ 0.25 µg/mL; MIC90 (Enterobacter cloacae): 64 µg/mL (≈ 115 µM); MIC50 (Acinetobacter baumannii): > 32 µg/mL; MIC90 (Acinetobacter baumannii): > 128 µg/mL; MIC50 (Morganella morganii): 0.03 µg/mL (≈ 0.0541 µM); MIC90 (Morganella morganii): > 128 µg/mL; MIC50 (Enterobacter amnigenus): 0.06 µg/mL (≈ 0.108 µM); MIC90 (Enterobacter amnigenus): 64 µg/mL (≈ 115 µM); MIC50 (Serratia marcescens): 0.06 µg/mL (≈ 0.108 µM); MIC90 (Serratia marcescens): 64 µg/mL (≈ 115 µM); MIC50 (Pseudomonas fluorescens): > 32 µg/mL; MIC90 (Pseudomonas fluorescens): > 128 µg/mL; MIC50 (Salmonella): 0.06 µg/mL (≈ 0.108 µM); MIC90 (Salmonella): 64 µg/mL (≈ 115 µM); MIC50 (Klebsiella aerogenes): 0.06 µg/mL (≈ 0.108 µM); MIC90 (Klebsiella aerogenes): 64 µg/mL (≈ 115 µM); MIC50 (Klebsiella oxytoca): 0.06 µg/mL (≈ 0.108 µM); MIC90 (Klebsiella oxytoca): 64 µg/mL (≈ 115 µM)
